Reference: ChEMBL document CHEMBL5030557, “Tandem Repeat of a Short Human Chemerin-Derived Peptide and Its Nontoxic d-Lysine-Containing Enantiomer Display Broad-Spectrum Antimicrobial and Antitubercular Activities” (J Med Chem, 2021)

Tested on: Mycobacterium tuberculosis variant bovis
Experiment: Anti-mycobacterial activity against Mycobacterium bovis assessed as growth inhibition at 16.13 uM relative to control
Assay type: functional

Row | Compound | inhibition at 16.13 µM
1 | CC(C)C[C@H](NC(=O)[C@H](CCCNC(=N)N)NC(=O)CNC(=O)[C@H](CC(C)C)NC(=O)[C@@H](NC(=O)[C@H](CCCCN)NC(=O)[C@@H](NC(=O)[C@H](CC(C)C)NC(=O)[C@H](CCCNC(=N)N)NC(=O)CNC(=O)[C@H](CC(C)C)NC(=O)[C@@H](NC(=O)[C@@H](N)CCCCN)C(C)C)C(C)C)C(C)C)C(=O)N[C@H](C(N)=O)C(C)C | 80%
2 | CC(C)C[C@H](NC(=O)[C@H](CCCNC(=N)N)NC(=O)CNC(=O)[C@H](CC(C)C)NC(=O)[C@@H](NC(=O)[C@@H](CCCCN)NC(=O)[C@@H](NC(=O)[C@H](CC(C)C)NC(=O)[C@H](CCCNC(=N)N)NC(=O)CNC(=O)[C@H](CC(C)C)NC(=O)[C@@H](NC(=O)[C@@H](N)CCCCN)C(C)C)C(C)C)C(C)C)C(=O)N[C@H](C(N)=O)C(C)C | 95%
